The values below come from publication PMC10120462, “Styrylquinazoline derivatives as ABL inhibitors selective for different DFG orientations” (Journal of Enzyme Inhibition and Medicinal Chemistry, 2023).

The test system of experiment [1] is K562 cells. In words: Immunoblotting. It is filed as cell-based, human. The settings on record: 16 h; for STAT5 phosphorylation: at the concentrations used; for Inhibition of expression of Ser473 phosphorylated Akt / Cyclin E1 protein level: IS8 only at 25 µM; for Cyclin E1 protein level: IS10 40 and 20 µM. From the text:
Changes in the expression of the BCR-ABL and ABL proteins and their downstream targets, such as STAT5, Src, Akt and Fyn after treatment with the tested compounds were also examined. As shown in Figure 7(B), no significant changes in the phosphorylation of BCR-ABL were observed after treatment with the tested styrylquinazolines. […] For reference inhibitors, there were greater changes in the expression of this protein. There were also interesting changes in the downstream targets of ABL, STAT5 and Src. […] Unfortunately, contrary to our assumptions and earlier results, IS1 was ineffective in inhibiting ABL, STAT5, and Src phosphorylation at the concentrations used. However, this derivative caused downregulation of Fyn expression, which could confirm its high inhibitory potential from in vitro kinase assays. […] Thus, these compounds were capable of blocking the pro-survival pathway facilitated by Akt kinase.
Prior to the experiment, K562 cells were seeded at a density of 500,000 cells per well in 3 cm Petri dishes (Nunc). […] After 16 h of exposure, cells were collected, centrifuged, and lysed on ice in complete RIPA buffer containing Halt Protease Inhibitor Cocktail, Halt Phosphatase Inhibitor Cocktail and 0.5 M EDTA (all from Thermo Scientific). Protein quantification was measured using a BCA Protein Assay Kit (Thermo Scientific) according to the manufacturer’s protocol. Equal amounts of the proteins were electrophoresed on SDS-page gels and transferred to nitrocellulose membranes. After blocking in 5% non-fat milk prepared in TTBS (Tris buffered saline with Tween 20), membranes were incubated overnight at 4 °C with specific primary antibodies (all from Cell Signalling) at a dilution of 1:1000 for c-ABL, phospho-c-ABL, Stat5, phospho-Stat5, cyclin E1, p27, PARP, AIF, BID, Src, Fyn, Akt, phospho-Akt, and at a dilution of 1:2000 for reference proteins (vinculin, β-actin and GAPDH). The next day, membranes were washed and incubated with horseradish peroxidase (HRP)-conjugated secondary antibodies for 1 h at room temperature. Chemiluminescence signals were recorded after staining with SuperSignal™ West Pico Chemiluminescent Substrate (Thermo Scientific) using a ChemiDoc™ XRS + System (BioRad). Experiments were performed four to five times. Densitometric analysis was performed using ImageJ software (Wayne Rasband, National Institutes of Health, USA).
In general terms: In western blotting, separated proteins are transferred to a membrane and probed.

Experiment [2] deals with PANC-1. In words: Cytotoxicity studies (MTS), antiproliferative activity. Format: cell-based, human. The settings on record: for IC50: Homo sapiens, PANC-1, 72 h, MTS; for Selectivity index PANC-1: versus NHDF.
The test system of experiment [3] is HCT 116 p53+/+. The experiment is described as above. To be noted: for IC50: Homo sapiens, HCT-116, 72 h, MTS; for Selectivity index HCT 116 p53+/+: versus NHDF. It is filed as cell-based, human. The method in brief: (§1)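 Antiproliferative effect was judged from MTS conversion, measured as optical density at 490 nm. Compounds were applied at different concentrations for 72 h; reagent incubation lasted 1 h at 37 °C. Each compound ran in triplicate, experiments repeated three or four times.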

The test system of experiment [4] is HCT 116 p53−/−. The experiment is described as above. It is filed as cell-based, human. The settings on record: for IC50: Homo sapiens, HCT-116, 72 h, MTS; for Selectivity index HCT 116 p53-/-: versus NHDF. Put shortly:
as §1

Experiment [5] has as its system MCF-7. Described as above. It is filed as cell-based, human. The settings on record: for IC50: Homo sapiens, MCF7, 72 h, MTS; for Selectivity index MCF-7: versus NHDF. The method in brief: as §1
The test system of experiment [6] is K562. The description is as above. It is filed as cell-based, human. The settings on record: for IC50: Homo sapiens, K562, 72 h, MTS; for Selectivity index K562: versus NHDF. The method in brief: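 Treatment with test compounds lasts 72 h, after which MTS reagent is added and left 1 h at 37 °C before reading optical density at 490 nm.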
Experiment [7] relates to U-251. Described as above. To be noted: for IC50: Homo sapiens, U-251, 72 h, MTS; for Selectivity index U-251: versus NHDF. It is filed as cell-based, human. The method in brief:
as §1

Experiment [8] relates to A549. The description is as above. It is filed as cell-based, human. The settings on record: for IC50: Homo sapiens, A549, 72 h, MTS; for Selectivity index A549: versus NHDF. The method in brief: as §1
Experiment [9] concerns the target T1, Lck (Homo sapiens, UniProt P06239).
T1 construct: purchased Promega
Kind of experiment: Tyrosine kinase assay (Kinase Selectivity System TK-2, ADP-Glo). Format: biochemical. To be noted: 1 h incubation, mean ± SD of four experiments. (ADP-Glo first removes unused ATP, then detects ADP through luciferase.)

Experiment [10] has as its target T2, Lyn B (Homo sapiens, UniProt P07948).
T2 construct: purchased Promega
The experiment is described as above. Format: biochemical. To be noted: 1 h incubation, mean ± SD of four experiments.

T2 sequence (P07948 1-491 isoform P07948-2): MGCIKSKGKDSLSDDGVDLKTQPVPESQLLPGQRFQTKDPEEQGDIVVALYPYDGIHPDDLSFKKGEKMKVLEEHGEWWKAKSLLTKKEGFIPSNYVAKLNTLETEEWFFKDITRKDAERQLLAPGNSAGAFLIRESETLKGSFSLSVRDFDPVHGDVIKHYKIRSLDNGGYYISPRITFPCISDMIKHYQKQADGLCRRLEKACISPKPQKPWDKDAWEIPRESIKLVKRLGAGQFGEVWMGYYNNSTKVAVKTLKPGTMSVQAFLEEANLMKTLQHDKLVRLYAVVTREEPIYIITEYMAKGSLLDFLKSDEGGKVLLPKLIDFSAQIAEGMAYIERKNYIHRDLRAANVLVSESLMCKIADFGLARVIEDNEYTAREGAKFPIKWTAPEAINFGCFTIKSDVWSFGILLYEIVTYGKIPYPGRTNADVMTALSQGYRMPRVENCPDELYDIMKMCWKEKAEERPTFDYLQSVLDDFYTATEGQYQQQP
T1 sequence (P06239 whole entry): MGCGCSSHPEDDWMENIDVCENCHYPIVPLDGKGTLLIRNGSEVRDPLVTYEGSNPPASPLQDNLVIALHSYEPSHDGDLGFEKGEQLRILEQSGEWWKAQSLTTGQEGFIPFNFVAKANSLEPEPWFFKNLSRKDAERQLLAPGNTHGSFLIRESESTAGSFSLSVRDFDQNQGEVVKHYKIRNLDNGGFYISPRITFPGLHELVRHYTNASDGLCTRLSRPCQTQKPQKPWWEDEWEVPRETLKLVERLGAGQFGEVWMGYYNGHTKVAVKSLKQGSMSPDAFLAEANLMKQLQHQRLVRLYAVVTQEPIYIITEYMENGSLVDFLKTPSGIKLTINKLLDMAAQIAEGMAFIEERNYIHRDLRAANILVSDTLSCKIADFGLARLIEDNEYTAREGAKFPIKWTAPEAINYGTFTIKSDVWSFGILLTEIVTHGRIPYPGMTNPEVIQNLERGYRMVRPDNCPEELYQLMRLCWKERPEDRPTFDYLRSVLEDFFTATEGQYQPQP

For the compound `COc1ccccc1/C=C/c1nc(Sc2ccccc2Cl)c2ccccc2n1` [IS1, 2-[(E)-2–(2-methoxyphenyl)ethenyl]-4–(2-chlorophenylthio)quinazoline], in [1], the ABL phosphorylation entry is “ineffective”, the AIF protein entry was “significant increase”, the Fyn expression result is “downregulation” and the “Src protein expression / phosphorylation” value is “ineffective”. For the same compound, the STAT5 phosphorylation result in experiment [1] was “ineffective”. In experiment [2], the concentration for half-maximal inhibition (IC50) (commonly the concentration that inhibits the measured activity by half) was more than 25 µM and the “Selectivity index PANC-1” value is 1.00. For the same compound, in experiment [3], the half-inhibitory concentration (IC50) was more than 25 µM and the “Selectivity index HCT 116 p53+/+” value is recorded as 1.00. In experiment [4], the IC50 was more than 25 µM and the “Selectivity index HCT 116 p53-/-” value is on record as 1.00. For the same compound, in experiment [5], the 50% inhibitory concentration (IC50) came to 18.5 ± 3.87 µM and the “Selectivity index MCF-7” value came to 1.35. Further, in experiment [6], the 50% inhibitory concentration (IC50) turned out to be 6.43 ± 1.2 µM and the “Selectivity index K562” value is given as more than 3.89. Besides, in experiment [7], the half-maximal inhibitory concentration (IC50) was more than 25 µM and the “Selectivity index U-251” value turned out to be 1.00. Further, in experiment [8], the IC50 is more than 25 µM and the “Selectivity index A549” value came to 1.00. Besides, in [9] (0.5 μM), the “Inhibition of tyrosine kinase activity [%] Lck” value is given as 79.08 ± 3.51%. The inhibition – broadly, the share of the control response that was lost under treatment – at 0.5 µM in experiment [9] was determined as 79%. At 0.5 µM the inhibition in [10] was 67.1 ± 5.1%.

For the compound `COc1ccccc1/C=C/c1nc(Sc2cccc(O)c2)c2ccccc2n1` [IS8, 3-{2-[(E)-2–(2-methoxyphenyl)ethenyl]quinazolin-4-ylthio}phenol], the “Inhibition of STAT5 phosphorylation at Tyr694” value in experiment [1] (12 and 6 µM) came out at 1.5 fold. Also, in experiment [1], the ABL phosphorylation entry is given as “significant decrease (about two-fold)”, the AIF protein entry is given as “significant increase”, the “Decrease of the level of BID” value is on record as “approximately 2 fold” and the “Src protein expression / phosphorylation” value is recorded as “almost two-fold decrease”. Besides, in experiment [1], the p27 expression entry is given as “more than two-fold increase”, the “Inhibition of expression of Ser473 phosphorylated Akt” value was “more than two-fold” and the “Cyclin E1 protein level” value is given as “significantly downregulated”. Moreover, in experiment [2], the IC50 turned out to be 17.9 ± 1.32 µM and the “Selectivity index PANC-1” value was 1.40. Moreover, in [3], the IC50 was more than 25 µM and the “Selectivity index HCT 116 p53+/+” value was found to be 1.00. Besides, in experiment [4], the 50% inhibitory concentration (IC50) is more than 25 µM and the “Selectivity index HCT 116 p53-/-” value is given as 1.00. For the same compound, in experiment [5], the half-maximal inhibitory concentration (IC50) turned out to be 8.03 ± 0.958 µM and the “Selectivity index MCF-7” value is recorded as 3.11. Besides, the IC50 in experiment [6] stood at 1.09 ± 0.299 µM. Further, in experiment [7], the half-inhibitory concentration (IC50) came to 25 ± 2.53 µM and the “Selectivity index U-251” value was found to be 1.00. Moreover, in experiment [8], the half-maximal inhibitory concentration (IC50) is more than 25 µM and the “Selectivity index A549” value was 1.00. Moreover, in [9], 0.5 µM produced 0% inhibition. Also, in experiment [10], the inhibition at 0.5 µM is 0%.

For the compound `COc1ccccc1/C=C/c1nc(Sc2ccc3c(c2)OCO3)c2ccccc2n1` [IS10, 5-{2-[(E)-2–(2-methoxyphenyl)ethenyl]quinazolin-4-ylthio}-2H-1,3-benzodioxole], the “Decrease in p-STAT5 expression” value in experiment [1] (20 µM) is listed as “more than three-fold decrease”. Further, in experiment [1], the ABL phosphorylation result is “significant decrease (about two-fold)”, the “Decrease of the level of BID” value is listed as “approximately 2 fold”, the “Src protein expression / phosphorylation” value is listed as “almost two-fold decrease” and the p27 expression result was “more than two-fold increase”. Also, in experiment [1], the “Inhibition of expression of Ser473 phosphorylated Akt” value was “more than two-fold” and the “Cyclin E1 protein level” value is given as “significantly downregulated”. Besides, in experiment [2], the 50% inhibitory concentration (IC50) was more than 25 µM and the “Selectivity index PANC-1” value is listed as 1.00. Moreover, in experiment [3], the IC50 was 10.7 ± 0.33 µM and the “Selectivity index HCT 116 p53+/+” value turned out to be 2.33. Also, in [4], the IC50 was 9.43 ± 1.49 µM and the “Selectivity index HCT 116 p53-/-” value was 2.65. For the same compound, in experiment [5], the IC50 is 16.3 ± 3.22 µM and the “Selectivity index MCF-7” value amounted to 1.54. In addition, in [6], the half-inhibitory concentration (IC50) stood at 2.04 ± 0.454 µM and the “Selectivity index K562” value is given as more than 12.24. Also, in [7], the 50% inhibitory concentration (IC50) is more than 25 µM and the “Selectivity index U-251” value is given as 1.00. Besides, in experiment [8], the IC50 was more than 25 µM and the “Selectivity index A549” value stood at 1.00. In experiment [9], this compound showed an inhibition at 0.5 µM of 28.1 ± 5.74%. The inhibition at 0.5 µM in [10] stood at 0%.

For `NC(=O)c1cccc(-c2cc(Nc3ccc(OC(F)(F)F)cc3)ncn2)c1` [GNF-2, reference compound], in experiment [1], the “Src protein expression / phosphorylation” value is “significant accumulation” and the STAT5 phosphorylation result is “stronger effect”. Moreover, in experiment [2], the concentration for half-maximal inhibition (IC50) was more than 25 µM and the “Selectivity index PANC-1” value was 1.00. For the same compound, in [3], the IC50 was more than 25 µM and the “Selectivity index HCT 116 p53+/+” value is 1.00. Besides, the half-inhibitory concentration (IC50) in experiment [4] was more than 25 µM. Further, in experiment [5], the half-inhibitory concentration (IC50) is more than 25 µM and the “Selectivity index MCF-7” value was found to be 1.00. Moreover, in experiment [6], the IC50 is 0.208 ± 0.045 µM and the “Selectivity index K562” value is more than 120.19. For the same compound, in experiment [7], the IC50 is more than 25 µM and the “Selectivity index U-251” value was found to be 1.00. Besides, in [8], the IC50 was more than 25 µM and the “Selectivity index A549” value is 1.00. In addition, testing at 0.5 µM in [9] gave an inhibition of 0%. The inhibition at 0.5 µM in experiment [10] came to 0%.
